Laboratory results from patent publication US8629328B2 (Monsanto Technology LLC, priority 2006, dated 2014).

What was measured:
[1] = tested on: non-transgenic soybean plants; assay: Greenhouse, post-V3 applications of different auxin-like herbicides, visual % injury; format: in vivo
Protocol: (§1) This was carried out by applying various concentrations of commercially available formulations of other auxin-like herbicides such as 2,4-D (Helena, Collierville, Tenn.), MCPA (Agriliance, St. Paul, Minn.), triclopyr (GARLON 3A; Dow Elanco, Indianapolis, Ind.), clopyralid (STINGER; Dow Elanco, Indianapolis, Ind.), picloram (TORDON 22K; Dow Elanco, Indianapolis, Ind.), or Banvel or CLARITY (BASF, Raleigh, N.C.) to DMO containing plant tissues or plants.
(§2) Transgenic soybean plants were obtained by Agrobacterium-mediated transformation of soybean explants with a DMO-encoding polynucleotide as described above for the events designated Events 1-4. A non-transgenic line was used as a control.
(§3) Applications were made when plants had reached V-3 stage.
(§4) Data were collected using a palm top computer and analyzed using standard statistical methods. The results shown in Table 10 clearly indicate tolerance of transgenic soybean to other auxin-like herbicides such as 2,4-D and MCPA relative to the non-transgenic line.

[2] = tested on: transgenic soybean plants with DMO-encoding polynucleotide (Events 1-4); assay: as above; format: in vivo; settings: for tolerance of DMO polynucleotide containing soybean: post-V3 application
Protocol: as §1, §2, §3, §4

[3] = tested on: MARESTAIL (CA) Resistant; assay: Control of marestail by dicamba or glyphosate, treated at rosette leaf stage; format: in vivo, Conyza canadensis; settings: glyphosate formulation 2100 g/ha
From the text: (§5) Marestail is one of the major weeds in a crop field. Marestail is effectively controlled by glyphosate, but the development of methods for controlling this common weed with other herbicides is important to minimize opportunities for herbicide tolerance to develop.

[4] = tested on: MARESTAIL (KY) Resistant; assay: as above; format: in vivo, Conyza canadensis; settings: glyphosate formulation 2100 g/ha
From the text: as §5

[5] = tested on: Marestail Resistant (KY); assay: Dicamba, glyphosate and their combination on marestail; format: in vivo, Conyza canadensis; settings: glyphosate formulation 200 g/ha

SMILES	% injury at 14 DAT ([1]; 280 g ae/ha post-V3) [%]	% injury at 14 DAT ([1]; 561 g ae/ha post-V3) [%]	% injury at 14 DAT ([1]; 1120 g ae/ha post-V3) [%]	% injury at 14 DAT ([2]; Event 1, 280 g ae/ha post-V3) [%]	% injury at 14 DAT ([2]; Event 1, 561 g ae/ha post-V3) [%]	% injury at 14 DAT ([2]; Event 1, 1120 g ae/ha post-V3) [%]	% injury at 14 DAT ([2]; Event 2, 280 g ae/ha post-V3) [%]	% injury at 14 DAT ([2]; Event 2, 561 g ae/ha post-V3) [%]	% injury at 14 DAT ([2]; Event 2, 1120 g ae/ha post-V3) [%]	% injury at 14 DAT ([2]; Event 3, 280 g ae/ha post-V3) [%]	% injury at 14 DAT ([2]; Event 3, 561 g ae/ha post-V3) [%]	% injury at 14 DAT ([2]; Event 3, 1120 g ae/ha post-V3) [%]	% injury at 14 DAT ([2]; Event 4, 280 g ae/ha post-V3) [%]	% injury at 14 DAT ([2]; Event 4, 561 g ae/ha post-V3) [%]	% injury at 14 DAT ([2]; Event 4, 1120 g ae/ha post-V3) [%]	% injury at 21 DAT ([1]; 280 g ae/ha post-V3) [%]	% injury at 21 DAT ([1]; 561 g ae/ha post-V3) [%]	% injury at 21 DAT ([1]; 1120 g ae/ha post-V3) [%]	% injury at 21 DAT ([2]; Event 1, 280 g ae/ha post-V3) [%]	% injury at 21 DAT ([2]; Event 1, 561 g ae/ha post-V3) [%]	other results
O=C(O)c1nc(Cl)ccc1Cl [Clopyralid, 3,6-dichloro-2-pyridinecarboxylic acid]	99.3	100.0	100.0	99.2	100.0	100.0	98.2	99.7	100.0	99.3	100.0	100.0	99.7	100.0	100.0						
Nc1c(Cl)c(Cl)nc(C(=O)O)c1Cl [Picloram, 4-amino-3,5,6-trichloro-2-pyridinecarboxylic acid]	99.3	100.0	100.0	99.7	100.0	100.0	99.3	100.0	100.0	99.3	99.7	100.0	99.3	100.0	100.0						
Cc1cc(Cl)ccc1OCC(=O)O [MCPA, (4-chloro-2-methylphenoxy)acetic acid]																93.0	98.3	100.0	72.5	99.3	% injury at 21 DAT ([2]; Event 1, 1120 g ae/ha post-V3): 100.0%; % injury at 21 DAT ([2]; Event 2, 280 g ae/ha post-V3): 55.0%; % injury at 21 DAT ([2]; Event 2, 561 g ae/ha post-V3): 95.0%; % injury at 21 DAT ([2]; Event 2, 1120 g ae/ha post-V3): 99.7%; % injury at 21 DAT ([2]; Event 3, 280 g ae/ha post-V3): 55.0%; % injury at 21 DAT ([2]; Event 3, 561 g ae/ha post-V3): 95.8%; % injury at 21 DAT ([2]; Event 3, 1120 g ae/ha post-V3): 100.0%; % injury at 21 DAT ([2]; Event 4, 280 g ae/ha post-V3): 88.3%; % injury at 21 DAT ([2]; Event 4, 561 g ae/ha post-V3): 98.8%; % injury at 21 DAT ([2]; Event 4, 1120 g ae/ha post-V3): 100.0%; tolerance of DMO polynucleotide containing soybean [2]: tolerant to low levels
O=C(O)CNCP(=O)(O)O [glyphosate, N-phosphonomethylglycine]																					% Injury (21 DAT) [3]: about 77%; % Injury (21 DAT) [4]: about 91%; % Injury (18 DAT) [5]: 6%
O=C(O)COc1ccc(Cl)cc1Cl [2,4-D, (2,4-dichlorophenoxy)acetic acid]																86.8	100.0	100.0	58.3	75.0	% injury at 21 DAT ([2]; Event 1, 1120 g ae/ha post-V3): 100.0%; % injury at 21 DAT ([2]; Event 2, 280 g ae/ha post-V3): 64.2%; % injury at 21 DAT ([2]; Event 2, 561 g ae/ha post-V3): 94.7%; % injury at 21 DAT ([2]; Event 2, 1120 g ae/ha post-V3): 100.0%; % injury at 21 DAT ([2]; Event 3, 280 g ae/ha post-V3): 40.0%; % injury at 21 DAT ([2]; Event 3, 561 g ae/ha post-V3): 85.0%; % injury at 21 DAT ([2]; Event 3, 1120 g ae/ha post-V3): 100.0%; % injury at 21 DAT ([2]; Event 4, 280 g ae/ha post-V3): 45.8%; % injury at 21 DAT ([2]; Event 4, 561 g ae/ha post-V3): 84.2%; % injury at 21 DAT ([2]; Event 4, 1120 g ae/ha post-V3): 100.0%; tolerance of DMO polynucleotide containing soybean [2]: tolerant to low levels
